Reference: ChEMBL document CHEMBL2074357, “Identification and functional assessment of the novel murine organic anion transporter Oat5 (Slc22a19) expressed in kidney” (Am J Physiol Renal Physiol, 2004)

Legend:
Assay type in all cases: functional, cell-based
[1] = molecular target: T1, Solute carrier family 22 member 19 (Mus musculus) (UniProt Q8VCA0); assay: TP_TRANSPORTER: inhibition of (Ochratoxin A: 0.5uM) of Probenecid at a concentration of 1000uM in Oat5-expressing Xenopus oocytes; parameters: scale not given: the % may be the effect or the level left; settings: Xenopus laevis, Oocyte
T1 sequence (whole entry): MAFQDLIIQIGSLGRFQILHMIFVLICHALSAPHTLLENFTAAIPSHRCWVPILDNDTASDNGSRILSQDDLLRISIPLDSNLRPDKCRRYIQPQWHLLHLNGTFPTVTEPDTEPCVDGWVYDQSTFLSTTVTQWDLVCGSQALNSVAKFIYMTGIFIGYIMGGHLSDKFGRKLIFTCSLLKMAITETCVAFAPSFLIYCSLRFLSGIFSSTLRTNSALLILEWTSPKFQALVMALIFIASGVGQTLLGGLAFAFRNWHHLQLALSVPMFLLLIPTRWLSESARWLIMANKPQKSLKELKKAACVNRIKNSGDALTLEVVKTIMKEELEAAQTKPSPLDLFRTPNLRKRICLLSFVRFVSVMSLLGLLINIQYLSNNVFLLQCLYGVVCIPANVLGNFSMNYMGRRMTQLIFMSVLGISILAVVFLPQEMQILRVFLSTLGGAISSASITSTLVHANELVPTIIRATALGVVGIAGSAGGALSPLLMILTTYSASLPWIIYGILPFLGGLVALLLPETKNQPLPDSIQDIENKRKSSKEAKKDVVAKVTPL

[2] = molecular target: T1, Solute carrier family 22 member 19 (Mus musculus); assay: TP_TRANSPORTER: inhibition of (Ochratoxin A: 0.5uM) of 2,4-dichlorophenoxyacetic acid at a concentration of 100uM in Oat5-expressing oocytes; parameters: scale not given: the % may be the effect or the level left; settings: Xenopus laevis, Oocyte
[3] = molecular target: T1, Solute carrier family 22 member 19 (Mus musculus); assay: TP_TRANSPORTER: inhibition of (Ochratoxin A: 0.5uM) of Estrone-3-sulfate at a concentration of 100uM in Oat5-expressing oocytes; parameters: scale not given: the % may be the effect or the level left; settings: Xenopus laevis, Oocyte
[4] = substrate: C[C@@H]1Cc2c(Cl)cc(C(=O)N[C@@H](Cc3ccccc3)C(=O)O)c(O)c2C(=O)O1; assay: TP_TRANSPORTER: uptake in Oat5-expressing oocytes; settings: Xenopus laevis; Oocyte

CCCN(CCC)S(=O)(=O)c1ccc(C(=O)O)cc1
Activity [1]: 25%

O=C(O)COc1ccc(Cl)cc1Cl
Activity [2]: 25%

C[C@]12CC[C@@H]3c4ccc(OS(=O)(=O)O)cc4CC[C@H]3[C@@H]1CCC2=O
Activity [3]: 5%

B1: Solute carrier family 22 member 19 (Mus musculus), Q8VCA0 (protein)
chain: MAFQDLIIQIGSLGRFQILHMIFVLICHALSAPHTLLENFTAAIPSHRCWVPILDNDTASDNGSRILSQDDLLRISIPLDSNLRPDKCRRYIQPQWHLLHLNGTFPTVTEPDTEPCVDGWVYDQSTFLSTTVTQWDLVCGSQALNSVAKFIYMTGIFIGYIMGGHLSDKFGRKLIFTCSLLKMAITETCVAFAPSFLIYCSLRFLSGIFSSTLRTNSALLILEWTSPKFQALVMALIFIASGVGQTLLGGLAFAFRNWHHLQLALSVPMFLLLIPTRWLSESARWLIMANKPQKSLKELKKAACVNRIKNSGDALTLEVVKTIMKEELEAAQTKPSPLDLFRTPNLRKRICLLSFVRFVSVMSLLGLLINIQYLSNNVFLLQCLYGVVCIPANVLGNFSMNYMGRRMTQLIFMSVLGISILAVVFLPQEMQILRVFLSTLGGAISSASITSTLVHANELVPTIIRATALGVVGIAGSAGGALSPLLMILTTYSASLPWIIYGILPFLGGLVALLLPETKNQPLPDSIQDIENKRKSSKEAKKDVVAKVTPL
Km [4]: 2 µM
